Measurements published in patent US8455523B2, “Compositions and methods for treating hyperlipidemias” (The Research Foundation of State University of New York, priority 2010, dated 2013).

Assays:
[1] = tested on: C57Bl/6J mice fed either a chow or western diet; test: MTP inhibitor BMS-212122-01 with or without lovastatin, pioglitazone or PBA in chow or western diet fed C57Bl/6J mice; type: in vivo; details: for hepatic triglycerides: MTPi 1 mg/kg/day one week, lovastatin 50 or pioglitazone 25 mg/kg/day added to MTPi; for hepatic free cholesterol: lovastatin or pioglitazone co-administered with MTPi; for Hepatic free fatty acids (FFA): lovastatin or pioglitazone with MTPi; for hepatic total and free cholesterol / hepatic triglycerides compared to western diet fed controls / plasma lipids: drug alone, one week; for plasma ALT/AST levels: lovastatin added to MTPi
Procedure: FIG. 13. Age matched wildtype C57/Bl6J animals chow fed animals were treated with DMSO (control) or MTP inhibitor (MTPi) for one week. […] All drugs were administered by oral gavage. Animals were sacrificed on day 7 and plasma and livers were harvested and analyzed. * represent comparison to DMSO control; # represent comparisons to WD control; @ represent comparisons to WD MTP inhibitor treatment.
FIG. 18. Age matched wildtype C57/BL6J were fed WD for one month and were administered MTPi, or 4-phenylbutyric acid (PBA) everyday for one week. All drugs were administered by oral gavage. Animals were sacrificed on day 7 and livers were harvested. * represent comparison DMSO control; # represent comparisons to HF MTP inhibitor treated animals.
C57BL/6J Black 6 mice (stock number 000664) were obtained from Jackson Laboratory and used for chow fed and western diet fed experiments. MTP inhibitor (BMS […]) (1 mg/kg/day), Lovastatin, Pioglitazone (Toronto Research Chemicals P471000) (25 mg/kg/day) and 4-phenylbutyric acid (Calbiochem 820986) (1 g/kg/day) were administered by oral gavage. Chow fed animals were treated for one week with either DMSO or MTP inhibitor. Western diet fed animals were fed DMSO, MTP inhibitor, Pioglitazone, MTP inhibitor+Pioglitazone, Lovastatin, MTP inhibitor+Lovastatin, 4-phenylbutyric acid, and MTP inhibitor+4-phenylbutyric acid. Chow fed animals were also injected with either PBS or Tunicamycin and animals were sacrificed at 4, 8, 12 and 24 hours.
All animals were kept in 07:00-19:00 h lighting schedule. […] Food was withdrawn 16 h before the sacrifice of the mice. On the day of the experiment, mice were anesthetized and blood was collected from the heart. Liver was collected, washed in ice-cold PBS, cut into small pieces and used for lipid extraction, histological staining, to measure different protein activities/quantities and for mRNA analysis. Lipids were extracted from the tissue homogenates following the Bligh and Dyer method. Triglyceride (Infinity TM Triglyceride, TR22421) and total cholesterol (Infinity TM Cholesterol, TR13421) levels in the tissues were determined using commercial kits (Thermo Scientific). Free cholesterol and free fatty acid levels were measured using kits from Wako Chemicals (Germany). Esterified cholesterol was calculated by subtracting the free cholesterol from the total cholesterol.
We next studied the effects of chemical inhibition of MTP in C57Bl/6J mice fed either a chow or western diet (WD) for 5 weeks. Chow fed animals were orally gavaged with either DMSO or MTP inhibitor BMS-212122-01 (MTPi; 1 mg/kg/day) for one week. WD fed animals were treated with DMSO, MTP inhibitor with or without lovastatin (50 mg/kg/day) or pioglitazone (25 mg/kg/day) daily by oral gavage for one week.

[2] = tested on: mice fed western diet; test: MTPi with or without pioglitazone or lovastatin in mice fed western diet for five weeks (Example III); details: for cellular cholesteryl esters (liver) / hepatic free cholesterol / hepatic triglycerides: MTPi vs control
Procedure: FIGS. 7a and 7b. Mice were fed western diet for five weeks. […] Livers were collected and used to measure MTP activity (A), triglyceride (B), total cholesterol (C), free cholesterol (D), esterified cholesterol (E) and free fatty acids (F).
FIGS. 8a and 8b. Plasma was obtained from animals described in FIG. 7 and used to measure triglyceride (A) and cholesterol (B) in apoB-lipoproteins. In addition, HDL cholesterol (C), plasma free fatty acids (D), ALT (E), and AST (F) levels were measured.

[3] = tested on: C57Bl/6J mice fed western diet; test: MTP inhibitor CP-346086 with or without lovastatin or WY14643 in western diet fed mice: plasma/hepatic lipids, AST/ALT; type: in vivo; details: for hepatic cholesterol (total, free and esterified): co-drug given with MTPi, compared to MTPi group
Procedure: FIGS. 4a and 4b. Effect of MTP inhibitor (CP-34086) on plasma lipids and lipoproteins in C57Bl/6J mice fed western diet ad libitum for 8 weeks. MTP inhibitor solubilzed in DMSO was administered orally for one week (15 mg/kg/day) along with either DMSO (MTPi), lovastatin (50 mg/kg/day), or WY14643 (10 mg/kg/day). Control mice were gavaged with DMSO only.
FIGS. 5a and 5b. Liver samples from FIG. 4 were used to measure MTP activity (A) and hepatic lipids (B-E). Stars on MPTi group represent comparison between Control and MTPi groups.
Control group (n=4) received daily oral gavage of DMSO alone. MTPi group received 15 mg/kg/day MTP inhibitor CP-346086 (MTPi) once daily. […] Plasma total and HDL cholesterol were unaffected by MTPi. Combined treatment of MTPi and lovastatin decreased plasma LDL cholesterol. […] Next, we measured changes in plasma hepatic enzymes (FIGS. 4G-H). […] These studies indicate that apart from lowering plasma triglyceride, MTPi enhances plasma AST/ALT and these increases can be avoided by the co-administration of lovastatin.

[4] = WD five weeks, treatment in last week, co-drugs with MTPi

CCc1ccc(CCOc2ccc(CC3SC(=O)NC3=O)cc2)nc1 (racemic) [pioglitazone, (RS)-5-(4-[2-(5-ethylpyridin-2-yl)ethoxy]benzyl)thiazolidine-2,4-dione]
hepatic triglycerides [1]: abrogated | hepatic free cholesterol ([1]; MTPi one week): reduced | Hepatic free fatty acids (FFA) ([1]; MTPi one week): resistant | hepatic total and free cholesterol ([1]; WD fed): decreased | hepatic triglycerides compared to western diet fed controls ([1]; WD fed): slightly lower | plasma lipids ([1]; WD fed): no effect | rise in intestinal free cholesterol seen with MTPi alone ([1]; WD fed, in conjunction with MTPi): attenuated | Plasma FFA levels ([1]; high fat feeding, MTPi one week, co-drugs with MTPi): completely abrogated | cellular cholesteryl esters (liver) [2, 4]: increased | hepatic free cholesterol [2, 4]: not seen | hepatic triglycerides [2, 4]: avoided increases | plasma HDL cholesterol [2, 4]: slightly increased | AST/ALT levels (plasma) ([2]; mouse, in vivo): significantly lower

Cc1cccc(Nc2cc(Cl)nc(SCC(=O)O)n2)c1C [WY14643]
plasma AST/ALT ([3]; WD 8 weeks, CP-346086 15 mg/kg/day 1 week ± lovastatin 50 or WY14643 10 mg/kg/day, MTPi vs control, co-drugs vs MTPi): no significant effect | plasma lipids ([3]; WD 8 weeks, WY14643 10 mg/kg/day given along with MTPi, 1 week): did not affect | hepatic cholesterol (total, free and esterified) [3]: no significant effect

CC[C@H](C)C(=O)O[C@H]1C[C@@H](C)C=C2C=C[C@H](C)[C@H](CC[C@@H]3C[C@@H](O)CC(=O)O3)[C@H]21 [lovastatin]
hepatic cholesterol (total, free and esterified) [3]: significantly lower | hepatic triglycerides ([1]; listed as Lovastatin): without affecting | plasma ALT/AST levels ([1]; MTPi one week): lowered | plasma ALT/AST levels ([1]; MTPi one week, listed as Lovastatin): abrogated increases | hepatic free cholesterol ([1]; MTPi one week): reduced | Hepatic free fatty acids (FFA) ([1]; MTPi one week): resistant | Cardiac tissue lipid profiles ([1]; WD fed, MTPi ± pioglitazone or lovastatin): no changes | hepatic total and free cholesterol ([1]; WD fed): decreased | hepatic triglycerides compared to western diet fed controls ([1]; WD fed): no effect | plasma lipids ([1]; WD fed): no effect | intestinal lipids ([1]; WD fed, with MTPi): no effect | cellular cholesteryl esters (liver) [2, 4]: increased | hepatic free cholesterol [2, 4]: not seen | hepatic triglycerides [2, 4]: not affected | AST/ALT levels (plasma) [2, 4]: significantly lower | plasma HDL cholesterol [2, 4]: slightly increased | plasma free fatty acids [2, 4]: not affected
